Assay results taken from patent US10183007B2, “Method of producing proanthocyanidin oligomer” (Nagasaki University, priority 2005, dated 2019).

What was measured:
[1] = TEAC (Trolox Equivalent Antioxidant Capacity) method; assay type: biochemical
Procedure: TEAC (Trolox Equivalent Antioxidant Capacity) method is a method of relatively evaluating antioxidative strength by converting antioxidative activity of a compound into antioxidative activity of Trolox which is a α-tocopherol derivative and the method is widely employed as an index of antioxidative activity.
To 36 μL of 70 μM metmyoglobin solution, 300 μL of ABTS solution and […] of 5 mM phosphate buffered saline were added. Subsequently, sample solution or 1.25 mM Yrolox solution was added thereto and gently mixed together for 5 minutes at 0° C. After 167 μL of 450 μM hydrogen peroxide solution was added thereto and mixed for 10 seconds, reaction was allowed to proceed for 5 minutes at room temperature. Absorbance at 734 nm was measured and the absorbance ratio between the sample and the Trolox solution was calculated to serve as TEAC value of the sample against […] Trolox.
As substance to be compared with Invention Substances C to E, grape seed polyphenol polymer was used.

[2] = DPPH radical-scavenging activity assay; assay type: biochemical; conditions: test concentration not given
Procedure: With respect to each sample, 1,1-diphenyl-2-picrylhydrazyl (DPPH) radical-scavenging activity was evaluated as follows. In a 96-hole microplate, 100 μL of DPPH solution (60 μM ethanol solution) was placed. Added thereto was 100 μL of ethanol solution of test sample or 100 μL of ethanol as control, and the mixture was gently mixed together and left standing at room temperature for 30 minutes. Then, absorbance at 520 nm was measured. The DPPH radical-scavenging activity was calculated by the following formula and 50% effective concentration (EC50) was calculated from The DPPH radical-scavenging activity value of test sample gradually diluted and its concentration. DPPH radical-scavenging activity(%)=[…] [Formula 1]
As substance to be compared with Invention Substance B, epicatechin and phloroglucinol (PL) were used. As substance to be compared with Invention Substances C to E, grape seed polyphenol polymer (GP) was used.

[3] = FIG. 11, TEAC value against Trolox
[4] = FIG. 8, comparison for Invention Substance B

With `Oc1cc(O)c([C@H]2c3c(O)cc(O)cc3O[C@H](c3ccc(O)c(O)c3)[C@@H]2O)c(O)c1` [Invention Substance B, 4-(2-phloroglucinol)-(−)-epicatechin] the TEAC activity [1, 3] was 1.44 mM and the DPPH activity [2, 4] was “significantly high scavenging activity as compared with both of the substances”.

`Oc1ccc(/C=C/c2cc(O)c([C@H]3c4c(O)cc(O)cc4O[C@H](c4ccc(O)c(O)c4)[C@@H]3O)c(O)c2)cc1` [Invention Substance A, 4b-(4-resveratroyl)-(−)-epicatechin] showed a TEAC activity ([1]; FIG. 10, TEAC value against 1.00 mM Trolox) of 1.33 mM and a DPPH activity ([2]; FIG. 7, comparison for Invention Substance A) of 76.1%.

With `Oc1cc(O)cc(O)c1` [phloroglucinol, reference compound] the TEAC activity [1, 3] was 0.52 mM and the DPPH activity [2, 4] was “little such activity”.
